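Values below derive from 48-hour exposures of cells grown in 96-well plates, with endpoints linearly interpolated between the two concentrations bracketing the appropriate inhibition level. GI50 marks 50% less growth. TGI: total growth inhibition.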
Key:
Assay in all cases: NCI anticancer screen, dose series, 48 h
BT-549 breast = test system: BT-549 breast
HT29 colon = test system: HT29 colon
LOX IMVI melanoma = test system: LOX IMVI melanoma
SK-OV-3 ovarian = test system: SK-OV-3 ovarian
SF-539 CNS = test system: SF-539 CNS
SNB-19 CNS = test system: SNB-19 CNS
RXF 393 renal = test system: RXF 393 renal
CAKI-1 renal = test system: CAKI-1 renal
HCC-2998 colon = test system: HCC-2998 colon
NCI-H23 lung = test system: NCI-H23 lung
NCI-H522 lung = test system: NCI-H522 lung
A549 NSCLC = test system: A549 NSCLC
NCI-H460 lung = test system: NCI-H460 lung
ACHN renal = test system: ACHN renal
HL-60(TB) leukemia = test system: HL-60(TB) leukemia
UO-31 renal = test system: UO-31 renal
MDA-MB-231 breast = test system: MDA-MB-231 breast
SK-MEL-5 melanoma = test system: SK-MEL-5 melanoma
HS 578T breast = test system: HS 578T breast
HOP-92 NSCLC = test system: HOP-92 NSCLC
UACC-257 melanoma = test system: UACC-257 melanoma
COLO 205 colon = test system: COLO 205 colon
OVCAR-8 ovarian = test system: OVCAR-8 ovarian
CCRF-CEM leukemia = test system: CCRF-CEM leukemia
MDA-MB-435 = test system: MDA-MB-435
HCT-15 colon = test system: HCT-15 colon
MOLT-4 leukemia = test system: MOLT-4 leukemia
DU-145 prostate = test system: DU-145 prostate

With COC(CCP(=O)(c1ccccc1)c1ccccc1)(C(=O)c1ccccc1)c1ccccc1 (stereo unspecified) the GI50 (BT-549 breast) was 4.55 µM, the TGI (BT-549 breast) was 15.6 µM and the GI50 (HT29 colon) was 4.65 µM. It also gave a TGI (HT29 colon) of 19.1 µM, a GI50 (LOX IMVI melanoma) of 5.12 µM and a TGI (LOX IMVI melanoma) of 19.6 µM. It also gave a GI50 (SK-OV-3 ovarian) of 8.05 µM, a TGI (SK-OV-3 ovarian) of 21.8 µM and a GI50 (SF-539 CNS) of 10.2 µM. It also gave a TGI (SF-539 CNS) of 21.9 µM, a GI50 (SNB-19 CNS) of 5.75 µM and a TGI (SNB-19 CNS) of 19.1 µM. For the same molecule, the GI50 (RXF 393 renal) was 0.213 µM, the TGI (RXF 393 renal) was 0.917 µM and the GI50 (CAKI-1 renal) was 2.95 µM. For the same molecule, the TGI (CAKI-1 renal) was 12.2 µM, the GI50 (HCC-2998 colon) was 4.11 µM and the TGI (HCC-2998 colon) was 17.9 µM. It also gave a GI50 (NCI-H23 lung) of 4.5 µM, a TGI (NCI-H23 lung) of 17.8 µM and a GI50 (NCI-H522 lung) of 4.71 µM. The TGI (NCI-H522 lung) was 26 µM, the GI50 (A549 NSCLC) was 3.77 µM and the TGI (A549 NSCLC) was 16.5 µM. For the same molecule, the GI50 (NCI-H460 lung) was 3.43 µM, the TGI (NCI-H460 lung) was 14 µM and the GI50 (ACHN renal) was 4.98 µM. For the same molecule, the TGI (ACHN renal) was 17 µM, the GI50 (HL-60(TB) leukemia) was 2.29 µM and the TGI (HL-60(TB) leukemia) was > 100 µM. For the same molecule, the GI50 (UO-31 renal) was 2.46 µM, the TGI (UO-31 renal) was 16.9 µM and the GI50 (MDA-MB-231 breast) was 2.69 µM. It also gave a TGI (MDA-MB-231 breast) of 17 µM, a GI50 (SK-MEL-5 melanoma) of 2.39 µM and a TGI (SK-MEL-5 melanoma) of 10.9 µM. It also gave a GI50 (HS 578T breast) of 4.81 µM, a TGI (HS 578T breast) of 23.1 µM and a GI50 (HOP-92 NSCLC) of 1.42 µM. The TGI (HOP-92 NSCLC) was 16.6 µM, the GI50 (UACC-257 melanoma) was 3.11 µM and the TGI (UACC-257 melanoma) was 11.8 µM. It also gave a GI50 (COLO 205 colon) of 1.64 µM, a TGI (COLO 205 colon) of 3.82 µM and a GI50 (OVCAR-8 ovarian) of 7.95 µM. For the same molecule, the TGI (OVCAR-8 ovarian) was 27.8 µM, the GI50 (CCRF-CEM leukemia) was 2.27 µM and the TGI (CCRF-CEM leukemia) was 42 µM. For the same molecule, the GI50 (MDA-MB-435) was 3.64 µM, the TGI (MDA-MB-435) was 15 µM and the GI50 (HCT-15 colon) was 3.19 µM. For the same molecule, the TGI (HCT-15 colon) was 13.6 µM, the GI50 (MOLT-4 leukemia) was 2.06 µM and the TGI (MOLT-4 leukemia) was > 100 µM. For the same molecule, the GI50 (DU-145 prostate) was 12 µM and the TGI (DU-145 prostate) was 24.3 µM.

Reference: PubChem BioAssay (NCI)
